# Measured values published in PubChem BioAssay AID602176 (NMMLSC, 2012).
# The source made the active and inactive calls. No rule for the calls is given here.
# Molecular target: Botulinum neurotoxin type A (Clostridium botulinum (strain Hall / ATCC 3502 / NCTC 13319 / Type A)) (UniProt P0DPI1)
# Experiment: Confirmatory dose response, Clostridium botulinum neurotoxin type A protease inhibitors, flow cytometry (AID 602176)
# Details: multiplex microsphere protease substrate cleavage
# Chain of Botulinum neurotoxin type A (Clostridium botulinum (strain Hall / ATCC 3502 / NCTC 13319 / Type A)) (P0DPI1 whole entry, looked up): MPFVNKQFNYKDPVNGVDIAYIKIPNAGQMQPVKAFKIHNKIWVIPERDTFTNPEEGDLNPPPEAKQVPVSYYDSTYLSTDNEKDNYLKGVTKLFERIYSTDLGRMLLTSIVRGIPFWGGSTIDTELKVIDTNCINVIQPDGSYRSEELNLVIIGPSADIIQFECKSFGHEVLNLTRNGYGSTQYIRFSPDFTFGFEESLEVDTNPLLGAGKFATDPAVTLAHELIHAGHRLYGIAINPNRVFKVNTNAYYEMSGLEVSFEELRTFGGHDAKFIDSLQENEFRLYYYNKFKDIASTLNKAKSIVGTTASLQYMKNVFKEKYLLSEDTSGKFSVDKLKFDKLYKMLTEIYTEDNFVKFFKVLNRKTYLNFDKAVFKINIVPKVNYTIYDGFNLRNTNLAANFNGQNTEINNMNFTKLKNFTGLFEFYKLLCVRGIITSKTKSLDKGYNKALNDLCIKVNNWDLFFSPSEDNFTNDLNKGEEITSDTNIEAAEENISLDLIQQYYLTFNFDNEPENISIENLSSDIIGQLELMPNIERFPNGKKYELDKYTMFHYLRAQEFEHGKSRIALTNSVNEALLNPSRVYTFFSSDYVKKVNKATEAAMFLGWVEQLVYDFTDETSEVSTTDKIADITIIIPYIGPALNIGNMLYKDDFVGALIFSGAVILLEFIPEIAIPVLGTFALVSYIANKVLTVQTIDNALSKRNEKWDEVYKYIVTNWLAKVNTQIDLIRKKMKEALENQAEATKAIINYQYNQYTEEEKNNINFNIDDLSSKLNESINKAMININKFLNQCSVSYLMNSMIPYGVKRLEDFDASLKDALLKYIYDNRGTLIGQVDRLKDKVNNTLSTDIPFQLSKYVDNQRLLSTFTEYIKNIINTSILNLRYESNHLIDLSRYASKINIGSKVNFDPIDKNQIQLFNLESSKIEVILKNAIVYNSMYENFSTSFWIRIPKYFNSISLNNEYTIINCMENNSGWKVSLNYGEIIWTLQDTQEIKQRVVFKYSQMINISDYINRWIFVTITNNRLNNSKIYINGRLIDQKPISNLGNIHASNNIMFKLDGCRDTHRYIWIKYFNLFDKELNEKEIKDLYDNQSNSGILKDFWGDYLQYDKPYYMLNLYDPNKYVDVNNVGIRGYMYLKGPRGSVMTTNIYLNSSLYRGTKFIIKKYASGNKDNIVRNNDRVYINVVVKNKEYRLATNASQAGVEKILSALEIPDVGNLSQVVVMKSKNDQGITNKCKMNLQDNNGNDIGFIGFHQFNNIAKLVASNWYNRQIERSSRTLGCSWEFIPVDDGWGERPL
structure (smiles),measurement,value
Oc1[nH]c(N=C2N=c3ccccc3=N2)c2ccccc12,EC50,> 20 µM (inactive)
